Source: patent US7927639B2, “Mixture of Propionibacterium jensenii and Lactobacillus sp. with antimicrobial activities for the use as natural preservation system” (Eidgenossische Technische Hochschule Zurich, priority 2001, dated 2011)

Experiments:
Format in all cases: cell-based
Candida silvicola 4-42/1 = experiment: Antifungal activity in agar plates; details: storage 21 days at 6° C.; cultures incorporated in agar plates at 10^8 cfu/ml (SM17, SM39 10^7 cfu/ml); Ka-Sorbat 1 g/l; spot-inoculation with 10^6 cfu/ml
Method: (§1) Agar plates were prepared, supplemented with Propionbacterium jensenii SM11 or an antimicrobial Lactobacillusor a combination of both. The cultures were previously grown separately for 72 h at 32° C. in supplemented whey permeate (SWP1), centrifugated, washed once and resuspended (1:1) in 0.85% NaCl and then serially diluted in dilution-buffer (0.85% NaCl, 0.1% peptone). Portions of 20 ml of agar were prepared with 10% of each dilution to give a final level of 10^5, 10^6, 10^7 and 10^8 cfu/ml. Agar plates were poured and after solidifying, portions of approximately 2-5 μl of broth cultures of the indicator strains were spot inoculated on the plates. YM agar was used for yeasts and moulds and BHI agar for bacteria. Triplex of the agar plates were stored at 6° C., 12° C. and 25° C. for up to 4 weeks and the growth of indicator organisms was controlled weekly for 6° C. or daily for 12° C. and 25° C. As a control, agar plates without supplementation of lactobacilli and propionibacteria were prepared as well as agar plates with an addition of 1 g/l Ka-Sorbat (EU-Richtlinie, Nr. 95/2/HG).
(§2) A total of 18 lactobacilli were tested for their antifungal activities alone or in combination with the high-antifungal Propionibacterium jensenii SM11. Therefore, the strains were incorporated, after centrifugation and a washing step in concentrations from 10^5 to 10^8 cfu/ml in YM agar plates on which the fungi listed in Table 1 were spotted in corresponding levels from 10^1 to 10^7 cfu/ml. The plates were stored in different batches at 6° C., 12° C. and 25° C. The growth of yeasts was controlled weekly or daily, respectively. […] A cell number of 10^8 cfu/ml of the Lactobacillus-strain and 10^8 cfu/ml of the Propionibacterium-strain was necessary for high inhibitory activities. Table 4 indicates five examples of the antifungal activities observed at 6° C. with a concentration of 10^8 cfu/ml (10^7 cfu/ml for Lactobacillus plantarum SM17) against spot-inoculated yeasts in a density of 10^6 cfu/ml and against spot-inoculated 3-day cultures of moulds.

Candida valida 1-48/8 = experiment: Antifungal activity in agar plates; details: storage 21 days at 6° C.; cultures incorporated in agar plates at 10^8 cfu/ml (SM17, SM39 10^7 cfu/ml); Ka-Sorbat 1 g/l; spot-inoculation with 10^6 cfu/ml
Method: as §1, §2

[1] = system: Sporobolomyces salmonicolor 3-46/2; experiment: Antifungal activity in agar plates; details: storage 21 days at 6° C.; cultures incorporated in agar plates at 10^8 cfu/ml (SM17, SM39 10^7 cfu/ml); Ka-Sorbat 1 g/l; spot-inoculation with 10^6 cfu/ml
Method: as §1, §2

Candida magnoliae 1-35/1 = experiment: Antifungal activity in agar plates; details: storage 21 days at 6° C.; cultures incorporated in agar plates at 10^8 cfu/ml (SM17, SM39 10^7 cfu/ml); Ka-Sorbat 1 g/l; spot-inoculation with 10^6 cfu/ml
Method: as §1, §2

Candida reukaufii 4-73/4 = experiment: Antifungal activity in agar plates; details: storage 21 days at 6° C.; cultures incorporated in agar plates at 10^8 cfu/ml (SM17, SM39 10^7 cfu/ml); Ka-Sorbat 1 g/l; spot-inoculation with 10^6 cfu/ml
Method: as §1, §2

Candida krusei 3-69/2 = experiment: Antifungal activity in agar plates; details: storage 21 days at 6° C.; cultures incorporated in agar plates at 10^8 cfu/ml (SM17, SM39 10^7 cfu/ml); Ka-Sorbat 1 g/l; spot-inoculation with 10^6 cfu/ml
Method: as §1, §2

[2] = system: Zygosaccharomyces bailii 1-48/1; experiment: Antifungal activity in agar plates; details: storage 21 days at 6° C.; cultures incorporated in agar plates at 10^8 cfu/ml (SM17, SM39 10^7 cfu/ml); Ka-Sorbat 1 g/l; spot-inoculation with 10^6 cfu/ml
Method: as §1, §2

Candida sp. 1-50/15 = experiment: Antifungal activity in agar plates; details: storage 21 days at 6° C.; cultures incorporated in agar plates at 10^8 cfu/ml (SM17, SM39 10^7 cfu/ml); Ka-Sorbat 1 g/l; spot-inoculation with 10^6 cfu/ml
Method: as §1, §2

[3] = system: Candida parapsilosis 4-5/1; experiment: Antifungal activity in agar plates; details: storage 21 days at 6° C.; cultures incorporated in agar plates at 10^8 cfu/ml (SM17, SM39 10^7 cfu/ml); Ka-Sorbat 1 g/l; spot-inoculation with 10^6 cfu/ml
Method: as §1, §2

[4] = system: Candida pulcherrima 1-50/13; experiment: Antifungal activity in agar plates; details: storage 21 days at 6° C.; cultures incorporated in agar plates at 10^8 cfu/ml (SM17, SM39 10^7 cfu/ml); Ka-Sorbat 1 g/l; spot-inoculation with 10^6 cfu/ml
Method: as §1, §2

fungi listed in Table 1 = experiment: Antifungal activities in agar plates (overall statements); details: YM agar plates stored at 6° C.
Method: as §1
A total of 18 lactobacilli were tested for their antifungal activities alone or in combination with the high-antifungal Propionibacterium jensenii SM11. […]

C/C=C/C=C/C(=O)[O-].[K+] [Ka-Sorbat]
colony growth of Candida silvicola 4-42/1 (Candida silvicola 4-42/1): ++ (++ strong colony (≈0% inhibition))
colony growth of Candida valida 1-48/8 (Candida valida 1-48/8): − (− no colony (≈100% inhibition))
colony growth of Sporobolomyces salmonicolor 3-46/2 [1]: − (− no colony (≈100% inhibition))
colony growth of Candida magnoliae 1-35/1 (Candida magnoliae 1-35/1): ++ (++ strong colony (≈0% inhibition))
colony growth of Candida reukaufii 4-73/4 (Candida reukaufii 4-73/4): ++ (++ strong colony (≈0% inhibition))
colony growth of Candida krusei 3-69/2 (Candida krusei 3-69/2): − (− no colony (≈100% inhibition))
colony growth of Zygosaccharomyces bailii 1-48/1 [2]: − (− no colony (≈100% inhibition))
colony growth of Candida sp. 1-50/15 (Candida sp. 1-50/15): ++ (++ strong colony (≈0% inhibition))
colony growth of Candida parapsilosis 4-5/1 [3]: − (− no colony (≈100% inhibition))
colony growth of Candida pulcherrima 1-50/13 [4]: ++ (++ strong colony (≈0% inhibition))
antifungal (inhibitory) activity in agar plates, in words (fungi listed in Table 1): weaker inhibitory activity
